Experimental data: PubChem BioAssay AID2060485 (Molecular Pharmacology Branch, DTP, NCI, 2025)

System: A375 multi-cell spheroids with HUVEC/MSC, viability
Experiment: Anticancer human tumor A375 cell line growth inhibition [GQUAD];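 also: spheroids exposed to compounds for seven days before readout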
Settings: for IC50: curve of first compound; for viability, T/C: stronger effect = lower value
Summary of the method: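 Tumor cells were grown as complex spheroids with HUVEC endothelial cells and mesenchymal stem cells as stroma. G-quadruplex stabilizers were combined with targeted agents over half-log dilutions from near the clinical Cmax, or from 10 microM.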

[1] = second compound 0.0316 µM, first compound 0.0316 µM
[2] = second compound 0.0316 µM, first compound 0.1 µM
[3] = second compound 0.0316 µM, first compound 0.316 µM
[4] = second compound 0.0316 µM, first compound 1 µM
[5] = second compound 0.0316 µM, first compound 3.16 µM
[6] = second compound 0.0316 µM, first compound 10 µM
[7] = second compound 0.1 µM, first compound 0.0316 µM
[8] = second compound 0.1 µM, first compound 0.1 µM
[9] = second compound 0.1 µM, first compound 0.316 µM
[10] = second compound 0.1 µM, first compound 1 µM
[11] = second compound 0.1 µM, first compound 3.16 µM
[12] = second compound 0.1 µM, first compound 10 µM
[13] = second compound 0.316 µM, first compound 0.0316 µM
[14] = second compound 0.316 µM, first compound 0.1 µM
[15] = second compound 0.316 µM, first compound 0.316 µM
[16] = second compound 0.316 µM, first compound 1 µM
[17] = second compound 0.316 µM, first compound 3.16 µM
[18] = second compound 0.316 µM, first compound 10 µM
[19] = second compound 1 µM, first compound 0.0316 µM
[20] = second compound 1 µM, first compound 0.1 µM
[21] = second compound 1 µM, first compound 0.316 µM
[22] = second compound 1 µM, first compound 1 µM
[23] = second compound 1 µM, first compound 3.16 µM
[24] = second compound 1 µM, first compound 10 µM
[25] = second compound 3.16 µM, first compound 0.0316 µM
[26] = second compound 3.16 µM, first compound 0.1 µM
[27] = second compound 3.16 µM, first compound 0.316 µM
[28] = second compound 3.16 µM, first compound 1 µM
[29] = second compound 3.16 µM, first compound 3.16 µM
[30] = second compound 3.16 µM, first compound 10 µM
[31] = second compound 10 µM, first compound 0.0316 µM
[32] = second compound 10 µM, first compound 0.1 µM
[33] = second compound 10 µM, first compound 0.316 µM
[34] = second compound 10 µM, first compound 1 µM
[35] = second compound 10 µM, first compound 3.16 µM
[36] = second compound 10 µM, first compound 10 µM

CC(=O)O[C@H]1C(=O)[C@@]2(C)[C@H]([C@H](OC(=O)c3ccccc3)[C@]3(O)C[C@H](OC(=O)[C@H](O)[C@@H](NC(=O)c4ccccc4)c4ccccc4)C(C)=C1C3(C)C)[C@]1(OC(C)=O)CO[C@@H]1C[C@@H]2O + CN(C)c1ccc(Nc2c3ccc(NC(=O)CCN4CCCC4)cc3nc3cc(NC(=O)CCN4CCCC4)ccc23)cc1
IC50 (second compound 0.0316 µM): 61.2 nM | IC50 (second compound 0.1 µM): 61.3 nM | IC50 (second compound 0.316 µM): 61 nM | IC50 (second compound 1 µM): 61.7 nM | IC50 (second compound 3.16 µM): 65.2 nM | IC50 (second compound 10 µM): 55.5 nM | viability, T/C [1]: 86.3% | viability, T/C [2]: 23.1% | viability, T/C [3]: 12.3% | viability, T/C [4]: 11% | viability, T/C [5]: 11.4% | viability, T/C [6]: 10.6% | viability, T/C [7]: 86.5% | viability, T/C [8]: 23% | viability, T/C [9]: 12.1% | viability, T/C [10]: 13.2% | viability, T/C [11]: 11.7% | viability, T/C [12]: 12.9% | viability, T/C [13]: 88.1% | viability, T/C [14]: 21.3% | viability, T/C [15]: 12.2% | viability, T/C [16]: 10.6% | viability, T/C [17]: 12.8% | viability, T/C [18]: 15% | viability, T/C [19]: 87.5% | viability, T/C [20]: 23% | viability, T/C [21]: 10.2% | viability, T/C [22]: 12.8% | viability, T/C [23]: 10.4% | viability, T/C [24]: 12.9% | viability, T/C [25]: 95.4% | viability, T/C [26]: 23.2% | viability, T/C [27]: 11.7% | viability, T/C [28]: 10.7% | viability, T/C [29]: 11.6% | viability, T/C [30]: 11.9% | viability, T/C [31]: 76.8% | viability, T/C [32]: 22% | viability, T/C [33]: 13.3% | viability, T/C [34]: 11.7% | viability, T/C [35]: 10.9% | viability, T/C [36]: 12.4%

CC(C)(O)C1CCC(Nc2ccc3ncc(-c4cccc(C(F)(F)F)c4)n3n2)CC1 (centres undefined) + CN(C)c1ccc(Nc2c3ccc(NC(=O)CCN4CCCC4)cc3nc3cc(NC(=O)CCN4CCCC4)ccc23)cc1
IC50 (second compound 0.0316 µM): > 10000 nM | IC50 (second compound 0.1 µM): > 10000 nM | IC50 (second compound 0.316 µM): > 10000 nM | IC50 (second compound 1 µM): > 10000 nM | IC50 (second compound 3.16 µM): 10000 nM | IC50 (second compound 10 µM): 2180 nM | viability, T/C [1]: 95.9% | viability, T/C [2]: 93% | viability, T/C [3]: 95.7% | viability, T/C [4]: 104% | viability, T/C [5]: 84% | viability, T/C [6]: 92.9% | viability, T/C [7]: 93.1% | viability, T/C [8]: 92.6% | viability, T/C [9]: 96.6% | viability, T/C [10]: 90.6% | viability, T/C [11]: 79.2% | viability, T/C [12]: 88.5% | viability, T/C [13]: 99% | viability, T/C [14]: 91.2% | viability, T/C [15]: 88.9% | viability, T/C [16]: 104% | viability, T/C [17]: 80.6% | viability, T/C [18]: 92.8% | viability, T/C [19]: 96.7% | viability, T/C [20]: 92.4% | viability, T/C [21]: 97.7% | viability, T/C [22]: 95.1% | viability, T/C [23]: 75.9% | viability, T/C [24]: 85% | viability, T/C [25]: 93.7% | viability, T/C [26]: 99.2% | viability, T/C [27]: 97.7% | viability, T/C [28]: 98.1% | viability, T/C [29]: 49.6% | viability, T/C [30]: 68.7% | viability, T/C [31]: 94.6% | viability, T/C [32]: 91.2% | viability, T/C [33]: 96.7% | viability, T/C [34]: 84.9% | viability, T/C [35]: 25.9% | viability, T/C [36]: 40.9%
